Measured values reported in publication PMC4320596, “Cytotoxicity effect of degraded and undegraded kappa and iota carrageenan in human intestine and liver cell lines” (BMC Complementary and Alternative Medicine, 2014).
Entries after “also recorded” stand apart in the source; their conditions may differ.

How the values were obtained:
Format in all cases: cell-based, human
[1] = test system: HepG2 cells; test: Morphological observation under an inverted microscope, HepG2; conditions: 72 h; degraded and TAM at 72 h IC50, undegraded at highest concentration
Procedure: (§1) Approximately 2×10^5 cells were seeded in 2 mL of culture medium in 6-well plates (BD Labware, England) and incubated with 5% CO2 at 37°C for 24 h. The cells were then treated with degraded FGKC, DKC and CGKC at the appropriate concentrations to produce 50% cell viability at 72 hours as pre-determined by the MTT assay. For undegraded carrageenan, the highest concentration with longest treatment period (72 hours) was used to test on the cells. […] The morphology of the treated cells was observed under an inverted microscope at 200× magnification. The observed morphology was compared to the morphology of untreated cells.

[2] = test system: PCNA, MKI67 and survivin gene expression in HepG2 cells; test: RT-PCR gene expression analysis, HepG2; conditions: 72 h, degraded and tamoxifen at IC50, undegraded at 2000 μg mL^−1
Procedure: Reverse transcription polymerase chain reaction (RT-PCR) was used to analyze the presence of transcribed mRNA for cell proliferation gene marker. […] The extracted RNA was dissolved in DEPC-treated water. The RNA concentration and sample purity was determined using spectrophotometer (Bio Photometer plus, Eppendorf). Two steps RT-PCR were conducted where 1 μg of total RNA was used in the first strand cDNA synthesis using RevertAid First Strand cDNA Synthesis Kit (ThermoScientific, USA). Subsequent PCR reaction was done utilizing Mastercyler Gradient (Eppendorf, Germany). The expression of cell proliferation markers, e.g. PCNA, MKI67 and BIRC5 or known as survivin were analyzed with GAPDH gene acting as the endogenous control. […] PCR amplification were under the following conditions: initial denaturation at 95°C for 2 min, denaturation at 95°C for 1 min, primer annealing as stated in Table 1, extension at 72°C for 45 second, and final extension at 72°C for 5 min. […] The separated DNA fragments were visualized by ethidium bromide staining and photographed using the Alpha Imaging System (Alpha Innotech, San Leandro, CA, USA) under UV transillumination.

[3] = test system: HepG2 cells; test: DNA fragmentation by agarose gel electrophoresis, HepG2; conditions: 1% agarose gel
Procedure: Caco-2 and HepG2 cells treated with degraded FGKC, DKC and CGKC were lysed with lysis buffer (10 mM Tris–HCl, 5 mM EDTA, […], 0.2% SDS) and incubated at 60°C for 5 min. The RNA in each sample was digested with 10 μL of RNase at 37°C for 1 hour, and proteinase K (more than 3 U uL^−1) was added before incubating at 50°C for an additional 1.5 h. NaCl (5 M) was then added, and the samples were incubated on ice for 5 min to precipitate the protein. The cells were centrifuged for 15 min at highest speed at 4°C, after which supernatant was collected, and an equal volume of isopropanol was added to precipitate the DNA. Then, each sample was centrifuged again at 10,000 g for 10 min at 4°C. Supernatants were discarded, and the pellets were washed with 70% cold ethanol. The DNA sample was left to dry at room temperature before adding 1× TE buffer. Electrophoresis was carried out in a 1.0% (w/v) agarose gel for 1.5 h at 70 V. The gel was examined under UV transillumination following ethidium bromide staining to determine the extent of apoptotic DNA fragmentation.

[4] = test system: HepG2 cells; test: Acridine orange-ethidium bromide (AO/EtBr) staining, HepG2; conditions: 72 h; degraded k-carrageenan
Procedure: After the cells were harvested by trypsinisation, they were washed with PBS. A 25 μL sample of cells was stained with 10 μL of a mixture (1:1) of acridine orange and ethidium bromide solution. The concentration of AO/EtBr are […] in 1× PBS. After staining, the cells were viewed under a fluorescence microscope at 200× magnification (Leica DM 2500).

[5] = test system: FHs 74 Int cells; test: Morphological observation under an inverted microscope, FHs 74 Int; conditions: 72 h; degraded and TAM at 72 h IC50, undegraded at highest concentration
Procedure: as §1

[6] = test system: Fa2N-4 cells; test: Morphological observation under an inverted microscope, Fa2N-4; conditions: 72 h; degraded and TAM at 72 h IC50, undegraded at highest concentration
Procedure: as §1

CC/C(=C(\c1ccccc1)c1ccc(OCCN(C)C)cc1)c1ccccc1 [TAM, Tamoxifen]
Cell morphology before staining, HepG2 [1]: cell shrinkage | MKI67 gene expression, HepG2 [2]: lower than control; also recorded: undetectably low | PCNA gene expression, HepG2 [2]: lower than control | survivin gene expression, HepG2 [2]: lower than control; also recorded: not expressed | DNA fragmentation (DNA ladder), HepG2 [3]: fragmented | Mode of cell death by AO/EtBr staining, HepG2 [4]: showed apoptosis | Cell morphology before staining, FHs 74 Int [5]: cell shrinkage | Cell morphology before staining, Fa2N-4 [6]: cell shrinkage
